Here are results for six compounds from patent US20230303604A1, “METALLIC TRANS-(N-HETEROCYCLIC CARBENE)-AMINE-PLATINUM COMPLEXES AND USES THEREOF FOR TREATING CANCER” (INSTITUT CURIE, priority 2020, published 2023).

In general, IC50 refers to the point on the concentration scale where inhibition reaches its midpoint.

Common to all, as to type: cell-based
For data set [1], the system named is A2780cis (A2780/DDP) cells. As to the kind of experiment: Cell proliferation evaluation on cisplatin-resistant A2780cis. The settings on record: for ability to counteract the cisplatin resistance: A780cis cell line. The procedure:
(§1) Cell culture. The A2780 ovarian carcinoma cell lines were purchased from ECACC (Salisbury, UK) and were grown in complete RPMI medium supplemented with 10% fetal calf serum, in the presence of penicillin, streptomycin. The resistance of A2780/DDP cells to cisplatin was maintained by monthly treatment with 1 μM cisplatin for 4 days. H1299 Non Small Cell Lung Carcinoma (ATCC® CRL-5803™) and were grown in RPMI medium supplemented with 10% fetal calf serum, 1% HEPES, 1% Sodium Pyruvate in the presence of penicillin and streptomycin. In addition, four cervical cancerous cell lines, already resistant to some conventional chemotherapy (Gemcitabin, methothrexate, vinorelbin and/or cisplatin) were chosen: IC5 (from Institut Curie), CRL1550 (ATCC® CRL1550™), CC11^+ (Cellosaurus CVCL_DF82) and CRL7920 (ATCC® CRL7920™). They were grown in complete RPMI medium supplemented with 10% fetal calf serum, in the presence of penicillin, streptomycin.
Cell proliferation evaluation. Cells were treated with various concentrations of NHC-Pt, at 37° C. under humidity and 5% CO2 conditions for 96 h. Cellular growth was quantified using the Moxi Z Mini automated cell counter (Orflox technology). CellTiter Glo® Luminescent Cell Viability Assay following the kit instructions (Promega) was also used. But since doses that inhibit 50% of cell proliferation (IC50) not always correlated to the number of cells, as previously observed (Uehara, T., Mitsuhashi, A., Tsuruoka, N., and Shozu, M. (2015) Metformin potentiates the anticancer effects of cisplatin under normoxic conditions in vitro, Oncology reports 33, 744-750), cell counting was privileged. […]

For data set [2], the system named is A2780 cell lines. As to the kind of experiment: Radiosensitization assay on A2780. The settings on record: A2780, 1 μM complex, 1 day pretreatment, D10 six days post-irradiation. The method, then:
(§2) For one day or 10 min pretreatment, cells were seeded at a number allowing 5 doubling populations growth without reaching confluence in the untreated samples. They were then pretreated during the time indicated at the indicated NHC-Pt concentrations, irradiated at 1, 2, 3 and 4 Gy for A2780 cell lines and 2. 4. 6 and 8 Gy for H1299 and allow growing until 6 days. IC5 cells were irradiated at 1, 2, 3, 4 and 5 Gy, CC11^+ were irradiated at 2, 3, 4, 5 and 6 Gy and allow growing until 7 days, CRL1550 were irradiated at 2, 4, 6 and 8 Gy and allow growing until 5 days. CRL79200 were irradiated at 1, 2, 3 and 4 Gy and allow growing until 15 days. For 4 days pretreatment, cells were seeding in the conditions of cell cytotoxicity determination, trypsinised, seeded at a number allowing 5 doubling population growth without reaching confluence in the untreated samples and treated one day before irradiation. Irradiation is using GSR D1 irradiator (gamma-ray, 662 keV). The cells were left to grow for 6 days to allow at least 5 population doublings. Cell count of each well is taken and a graph is plotted with the percentage survival of each treatment of cells with its control (0 Gy). […]
(§3) All the complexes were first evaluated for their radiosensitizing properties on A2780 and H1299 cell lines. […] The D10 doses were evaluated as the doses allowing 10% survival six days post-irradiation. […]

Data set [3] concerns H1299 cell lines. Description: Radiosensitization assay on H1299. The settings on record: H1299, 1 μM complex, 1 day pretreatment, D10 six days post-irradiation. The method, then: as §2, §3
For data set [4], the system named is A2780 cells. Description: Immunofluorescence assay, DNA damage repair kinetics (γ-H2AX and 53BP1 foci). The settings on record: A2780, 2 Gy, 2 h and 6 h post irradiation, 1 day pre-treatment. The method, then:
Immunofluorescence Assays. A2780 cells were plated on coverslips in 6-well plates. After 1 day of incubation with the various NHC-Pt at their RS doses, cells were irradiated at 2 Gys, incubated the time indicated post-irradiation, washed with phosphate-buffered saline (PBS), then fixed 10 minutes in 4% formaldehyde. After a wash with PBS, cells were permeabilised 2 min using 0.5% Triton X-100 and is washed with PBS. The cells were incubated in blocking buffer (5% bovine serum albumin in PBS) for 30 min before being incubated for 1 h with the primary mouse monoclonal antibody against g-H2AX (milipore) or 53BP1. After three washes with PBS, the cells were incubated for an additional 1 h with the Alexa Fluor 488-conjugated secondary antibody (Alexa Fluor 488 goat anti-mouse IgG; Life Technologies). Nuclei were labeled using DAPI and the coverslides were mounted with Vectashield™. Acquisitions were performed on a3D-dev or 3D-SIM in the microscopy platform from Institut Curie. ImageJ software ([…]) was used to project the z-stacks and count the number of g-H2AX or 53BP1 spots as well as their intensity and size in nuclei. […]
The inventors analyzed, by immunofluorescence, the γ-H2AX and 53BP1 foci, γ-H2AX being a DNA damage sensor and 53BP1 being a DNA repair sensor at different time post-irradiation (0.5-24 h).

Data set [5] has as its system cervical cancerous cell lines (IC5, CC11^+, CRL1550, CRL7920). As to the kind of experiment: Cell proliferation evaluation, statements over the cervical cancerous cell lines. The settings on record: three cervical cancerous cell lines. The method, then:
as §1
(§4) Cell proliferation evaluation. Cells were treated with various concentrations of NHC-Pt, at 37° C. under humidity and 5% CO2 conditions for 96 h. Cellular growth was quantified using the Moxi Z Mini automated cell counter (Orflox technology). CellTiter Glo® Luminescent Cell Viability Assay following the kit instructions (Promega) was also used. […]

The test system of data set [6] is A2780 ovarian carcinoma cell lines. Description: Cell proliferation evaluation (cell counting) on A2780. The settings on record: A2780, 4 days (96 h) treatment. The procedure:
as §1, §4

Data set [7] relates to IC5 cervical cancerous cell line. As to the kind of experiment: Cell proliferation evaluation on IC5. The settings on record: IC5, 4 days treatment. The method, then:
as §1, §4

Data set [8] has as its system CC11^+ cervical cancerous cell line. As to the kind of experiment: Cell proliferation evaluation on CC11+. The settings on record: 4 days treatment. The method, then: as §1, §4
The test system of data set [9] is CRL1550 cervical cancerous cell line. Description: Cell proliferation evaluation on CRL1550. The settings on record: CRL1550, 4 days treatment. The procedure:
as §1, §4

In the case of `CN1C=CN(CCCCCCN2C=CN(C)[CH]2[Pt]([NH2])([I])[I])[CH]1[Pt]([NH2])([I])[I]` (stereo not drawn) [C2, [1,1′-(hexane-1,6-diyl)bis(3-methylimidazol-2-ylidene)]bis[trans-diiodo(ammonia)platinum]], the “ability to counteract the cisplatin resistance” value in data set [1] is given as “able to counteract the cisplatin resistance”. The “radiosensitizing properties at 1 μM” value in [2] and in data set [3] was “significant radiosensitizing properties” in each case. For the same compound, the “DNA damage repair after irradiation (γ-H2AX foci)” value in data set [4] is “induced a delay in the DNA damage repair”.
Turning to `CN1C=CN(CCCCCCN2C=CN(C)[CH]2[Pt]([I])([I])[N]2CCOCC2)[CH]1[Pt]([I])([I])[N]1CCOCC1` (stereo not drawn) [C7, [1,1′-(hexane-1,6-diyl)bis(3-methylimidazol-2-ylidene)]bis[trans-diiodo(N-morpholine)platinum]], the “cytotoxic activity as compared to C2” value in [5] is on record as “improved cytotoxic activity”.
Same read-out and setting: the entry for `OCCN1C=CN(CCCCCCN2C=CN(CCO)[CH]2[Pt]([I])([I])[NH]C2CCCCC2)[CH]1[Pt]([I])([I])[NH]C1CCCCC1` (stereo not drawn) [C9, {1,1′-(hexane-1,6-diyl)bis[3-(2-hydroxethyl)imidazol-2-ylidene]}bis{[trans-diiodo(N-cyclohexylamine)platinum]}] is “improved cytotoxic activity”.
`N.N.[Cl][Pt][Cl]` [Cisplatin, cisplatin]: the IC50 was determined as 300 nM in data set [6]; 6000 nM in [1] (cisplatin-resistant cell line, 96 h, read-out: IC50 in A780cis cell line); 490 ± 50 nM in data set [7]; 6 nM in data set [8]; 390 ± 40 nM in [9].
Turning to `CN1C=CN(C)[CH]1[Pt]([NH2])([I])[I]` [MS113, trans-Diiodo(ammonia)(1,3-dimethylimidazol-2-ylidene)platinum], the “ability to counteract the cisplatin resistance” value in data set [1] was “it is not the case”.
Consider `CN1C=CN(C)[CH]1[Pt]([I])([I])[NH]C1CCCCC1` [MS140, trans-Diiodo(N-cyclohexylamine)(1,3-dimethylimidazol-2-ylidene)platinum], for which the “radiosensitizing properties at 1 μM” value in data set [2] and in data set [3] was “significant radiosensitizing properties” each time.
